Among the test systems are SNB-75; NCI-H226; MDA-MB-231; UACC-257; SNB-19; MCF7; K562; DU-145; RPMI-8226; ACHN; SK-MEL-28; COLO 205; SN12C; SR; U-251; SK-MEL-5; SF-539; Malme-3M; IGROV-1.
Holding throughout (assay): NCI anticancer screen, dose series, 48 h

Consider eleven compounds from ChEMBL document CHEMBL1201862, “PubChem BioAssay data set” (2004).

Each structure is given as a SMILES string.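 Assay format: 96-well plates, 48-hour exposure. At the GI50, growth is halved.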 Active and inactive are the calls of the source. No stated cut-off is given here; in the data, active = GI50 up to about 1.1 µM and inactive = higher.

On to `CC(C)S(=O)(=O)ON1C(=O)c2ccc(N(C)C)cc2C1=O`, for which the GI50 in the test with SNB-75 is 19.6 µM (inactive); in the test on NCI-H226 it was 25.2 µM (inactive); with MDA-MB-231, 6.17 µM (inactive); in the test on UACC-257, 20.1 µM (inactive); in the test with SNB-19, 40.4 µM (inactive); in the test with MCF7, 5.93 µM (inactive). The GI50 in the test on K562 is 3.41 µM (inactive); in the test with DU-145 it was > 10 µM (inactive); with RPMI-8226, 2.58 µM (inactive); in the test with ACHN, 15.6 µM (inactive); with SK-MEL-28, 21.4 µM (inactive); in the test with COLO 205, 2.86 µM (inactive). The GI50 is 16.9 µM (inactive) with SN12C; 2.38 µM (inactive) in the test with SR; 15.8 µM (inactive) with U-251; 3.96 µM (inactive) with SK-MEL-5; 19 µM (inactive) with SF-539; 2.93 µM (inactive) with Malme-3M. Besides, in the test on IGROV-1, the GI50 is 20.8 µM (inactive).

In the case of `CC1(C)C2CCC1(CS(=O)(=O)Nc1ccccc1)C(=O)C2` (centres undefined), the GI50 with SNB-75 is 89.9 µM (inactive); in the test on NCI-H226, > 100 µM (inactive); in the test on MDA-MB-231, > 100 µM (inactive); in the test with UACC-257, > 100 µM (inactive); with SNB-19, > 100 µM (inactive); with MCF7, > 100 µM (inactive). Besides, the GI50 in the test on K562, in the test with DU-145, with RPMI-8226, in the test on ACHN, with SK-MEL-28 and in the test on COLO 205 was > 100 µM (inactive) each time. Further, the GI50 in the test with SN12C was > 100 µM (inactive); in the test on SR, 35.5 µM (inactive); with U-251, > 100 µM (inactive); with SK-MEL-5, > 100 µM (inactive); with SF-539, > 100 µM (inactive); with Malme-3M it was > 100 µM (inactive). The GI50 in the test on IGROV-1 was > 100 µM (inactive).

As to `CN(C1=NS(=O)(=O)N=C(N(C)c2ccccc2)O1)c1ccccc1`, the GI50 was 16.7 µM (inactive) in the test with SNB-75; 14.9 µM (inactive) in the test with NCI-H226; 17.6 µM (inactive) with MDA-MB-231; 19.1 µM (inactive) in the test on UACC-257; 18.7 µM (inactive) in the test on SNB-19; 15 µM (inactive) in the test on MCF7. The GI50 was 17.7 µM (inactive) in the test on K562; 21.9 µM (inactive) in the test with DU-145; 16.9 µM (inactive) in the test on RPMI-8226; 17.3 µM (inactive) with ACHN; 22.8 µM (inactive) with SK-MEL-28; 21.8 µM (inactive) in the test with COLO 205. The GI50 is 18.7 µM (inactive) with SN12C; 7.06 µM (inactive) with SR; 16 µM (inactive) in the test on U-251; 7.66 µM (inactive) in the test on SK-MEL-5; 21.6 µM (inactive) in the test with SF-539; 24.2 µM (inactive) in the test with Malme-3M. Moreover, the GI50 in the test with IGROV-1 was 23.3 µM (inactive).

For `C/C=C1\CC2C(=O)CCC2C2c3ccccc3OC12` (centres undefined), the GI50 in the test with SNB-75, in the test on NCI-H226, in the test with MDA-MB-231, in the test on UACC-257, in the test on SNB-19 and with MCF7 was > 100 µM (inactive) in each case. The GI50 in the test on K562 was > 100 µM (inactive); in the test with DU-145, 0.0617 µM (active); in the test on RPMI-8226, > 100 µM (inactive); in the test on ACHN, > 100 µM (inactive); with SK-MEL-28, > 100 µM (inactive); with COLO 205 it was > 100 µM (inactive). Also, the GI50 in the test on SN12C was < 0.01 µM (active); in the test with SR, > 100 µM (inactive); in the test on U-251 it was > 100 µM (inactive); in the test with SK-MEL-5 it was > 100 µM (inactive); with SF-539, > 100 µM (inactive); in the test on Malme-3M, > 100 µM (inactive). Also, the GI50 in the test with IGROV-1 is > 100 µM (inactive).

For the compound `CC(=O)Nc1cc(/C=C\C(=O)N2CC(CCl)c3c2cc(N)c2ccccc32)n(C)n1` (centres undefined), the GI50 was 0.00165 µM (active) in the test with SNB-75; 0.00805 µM (active) in the test with NCI-H226; 0.045 µM (active) with MDA-MB-231; 0.0132 µM (active) in the test on UACC-257; 0.0386 µM (active) with SNB-19; 0.00204 µM (active) in the test with MCF7. Besides, the GI50 in the test with K562 was 0.00417 µM (active); in the test on DU-145 it was < 0.001 µM (active); with RPMI-8226, 0.0179 µM (active); in the test with ACHN, < 0.001 µM (active); in the test with SK-MEL-28, 0.0144 µM (active); with COLO 205, 0.0235 µM (active). The GI50 with SN12C was < 0.001 µM (active); in the test with SR, < 0.001 µM (active); with U-251 it was 0.0031 µM (active); with SK-MEL-5, 0.00269 µM (active); with SF-539 it was 0.00621 µM (active); in the test with Malme-3M, 0.012 µM (active). In addition, the GI50 with IGROV-1 is 0.0137 µM (active).

As for `CN(C(=O)c1ccc(Cl)s1)C(=S)N(C)C(=O)c1ccc(Cl)s1`, the GI50 in the test with SNB-75, in the test on NCI-H226, with MDA-MB-231, with UACC-257, in the test on SNB-19 and in the test with MCF7 was > 10 µM (inactive) each time. Besides, the GI50 in the test with K562, with DU-145, in the test on RPMI-8226, with ACHN, in the test with SK-MEL-28 and in the test on COLO 205 was > 10 µM (inactive) in each case. Besides, the GI50 with SN12C, in the test with SR, in the test with U-251, with SK-MEL-5, in the test on SF-539 and in the test on Malme-3M was > 10 µM (inactive) throughout. Besides, the GI50 with IGROV-1 is > 10 µM (inactive).

For `CC(=O)N(O)[C@@H]1CC[C@H](n2cnc3c(N)ncnc32)C1`, the GI50 with SNB-75, with NCI-H226, with MDA-MB-231, in the test on UACC-257, in the test on SNB-19 and in the test on MCF7 was > 100 µM (inactive) in each case. For the same compound, the GI50 with K562, in the test with DU-145, in the test on RPMI-8226, in the test with ACHN, with SK-MEL-28 and in the test on COLO 205 was > 100 µM (inactive) in each case. The GI50 in the test on SN12C, in the test on SR, in the test with U-251, in the test on SK-MEL-5, in the test with SF-539 and with Malme-3M was > 100 µM (inactive) in each case. Besides, the GI50 in the test on IGROV-1 was > 100 µM (inactive).

As for `CCCCCC(=O)OC[n+]1ccc2c(C)c3[nH]c4ccc(OC)cc4c3c(C)c2c1`, the GI50 in the test with SNB-75 was 1.11 µM (active); in the test on NCI-H226 it was 0.276 µM (active); with MDA-MB-231, 0.244 µM (active); in the test on UACC-257 it was 1.28 µM (inactive); with SNB-19 it was 0.189 µM (active); in the test with MCF7, 0.225 µM (active). Moreover, the GI50 was 0.0632 µM (active) in the test on K562; 0.505 µM (active) in the test on DU-145; 0.0619 µM (active) in the test with RPMI-8226; 0.106 µM (active) in the test on ACHN; 0.766 µM (active) in the test with SK-MEL-28; 0.251 µM (active) in the test on COLO 205. In addition, the GI50 was 0.117 µM (active) with SN12C; 0.0498 µM (active) in the test on SR; 0.321 µM (active) with U-251; 1.57 µM (inactive) in the test with SK-MEL-5; 0.238 µM (active) with SF-539; 1.37 µM (inactive) in the test on Malme-3M. Moreover, the GI50 in the test on IGROV-1 was 0.234 µM (active).

In the case of `c1ccc(C2C3=C(CCCC3)Nc3nc4cc5ccccc5cc4n32)cc1` (centres undefined), the GI50 with SNB-75, in the test on NCI-H226, in the test with MDA-MB-231, in the test on UACC-257, with SNB-19 and with MCF7 was > 100 µM (inactive) each time. Moreover, the GI50 in the test with K562, in the test on DU-145, in the test with RPMI-8226, in the test with ACHN, with SK-MEL-28 and in the test on COLO 205 was > 100 µM (inactive) in each case. Moreover, the GI50 in the test with SN12C, in the test on SR, with U-251, in the test with SK-MEL-5, in the test on SF-539 and with Malme-3M was > 100 µM (inactive) throughout. Besides, in the test on IGROV-1, the GI50 was > 100 µM (inactive).

As to `CCNc1nc2ccccc2nc1NCC`, the GI50 in the test on SNB-75, in the test on NCI-H226, with MDA-MB-231, in the test with UACC-257, with SNB-19 and in the test on MCF7 was > 100 µM (inactive) in each case. In addition, the GI50 with K562, with DU-145, in the test on RPMI-8226, in the test with ACHN, with SK-MEL-28 and in the test with COLO 205 was > 100 µM (inactive) each time. Further, the GI50 with SN12C, in the test on SR, with U-251, in the test with SK-MEL-5, with SF-539 and in the test on Malme-3M was > 100 µM (inactive) throughout. Also, the GI50 with IGROV-1 was > 100 µM (inactive).

With `O=C1Nc2ccccc2/C1=C1/Nc2ccccc2/C1=N\OCCNCC(O)C(O)C(O)C(O)CO` (centres undefined), the GI50 in the test with SNB-75 was 11 µM (inactive); in the test with NCI-H226, 13.8 µM (inactive); with MDA-MB-231, 11.2 µM (inactive); in the test with UACC-257, 13.5 µM (inactive); in the test with SNB-19 it was 13.6 µM (inactive); in the test on MCF7, 12.4 µM (inactive). The GI50 in the test on K562 was 16.3 µM (inactive); in the test on DU-145, 21.2 µM (inactive); with RPMI-8226, 19.1 µM (inactive); in the test with ACHN it was > 50 µM (inactive); in the test on SK-MEL-28 it was 9.73 µM (inactive); with COLO 205 it was 12.1 µM (inactive). The GI50 with SN12C is 15.2 µM (inactive); in the test on SR it was 9.55 µM (inactive); in the test on U-251, 12.9 µM (inactive); in the test on SK-MEL-5, 8.36 µM (inactive); in the test with SF-539 it was 14.1 µM (inactive); in the test on Malme-3M, 11.2 µM (inactive). In addition, the GI50 in the test on IGROV-1 was 6.62 µM (inactive).
